Assay results as given in patent US10287265B2, “Enantiomers of 8-hydroxyquinoline derivatives and the synthesis thereof” (AVIDIN Co. Ltd., priority 2015, dated 2019).
“Also recorded” adds a separate entry of the source.

Experiments:
[1] = system: EPO gene; assay: Gene expression in primary astrocytes by qRT-PCR; format: cell-based, rat; conditions: 3 h, Example 2 at 330 nM and 1000 nM, PBT2 at 1000 nM
Description: (§1) Pure astrocyte culture was obtained from neonatal rats according to the protocol found in literature (Protocols for Neural Cell Culture 2001, pp 117-127. ch 9. Ruth Cole, Jean de Vellis. Preparation of Astrocyte, Oligodendrocyte, and Microglia Cultures from Primary Rat Cerebral Cultures). Astrocytes (1 million) were cultured in 100 mm TC-treated culture dishes (Orange Scientific, Belgium) in an incubator set at 37° C. and 5% CO2 with humid air. The R-enantiomeric derivative according to Example 2 was added to cells in two final concentrations: 330 nM and 1000 nM. Cells were also treated with 1000 nM PBT2 which bears the basic structure of the R-enantiomer according to Example 2 (8-hydroxy-quinoline ring) but contains conformational differences and was developed for the treatment of neurodegenerative disorders (Pub. No.: WO/2004/007461). Treatments were carried out with a 100 μM DMSO-based stock solution. Control cells were treated with the same amount of DMSO without the agent. Each treatment was conducted in three separate culture dishes. After treatment, cells were incubated at 37° C. for 3 h, then the medium was removed, cells were washed with PBS and total RNA was extracted from cells with the Accuzol™ Total RNA Extraction Solution (Bioneer, Daejeon, South Korea), according to the manufacturer's protocol. cDNA transcription was carried out with the High Capacity cDNA Reverse Transcription Kit (Life Technologies, Foster City, Calif., USA). During the test, the expression of four genes (PGK1, EPO, HMOX-1, VEGF) controlled by HIF1a was determined by qRT-PCR, with HPRT gene serving as a control. Relative expression of genes in treated samples was compared to untreated controls. The PCR was conducted with a LightCycler® Nano Instrument (Roche, Budapest, Hungary) in the presence of UPL (Universal Probe Library) probes (HPRT: 95, HMOX1: 4, EPO: 16, VEGF: 1, PGK1: 66), specific primers (HPRT1: 5′-gaccggttctgtcatgtcg-3′, HPRT2: 5′-[…]-3′; HMOX1-1: 5′-[…]-3′, HMOX1-2: 5′-ctgcagctcctcaaacagc-3′; EPO1: 5′-[…]-3′, EPO2: 5′-ccttctgcacagcccatt-3′; VEGF1: 5′-[…]-3′, VEGF2: 5′-[…]-3′; PGK1-1: 5′-[…]-3′, PGK1-2: 5′-gacttggctccattgtcca-3′) in 20 μl PCR reaction volume with 20 ng cDNA template and 10 μl Lightcycler DNA Probes Master (5×) Reagent Kit (Roche) according to the following protocol: activation of enzyme at 95° C. for 10 min, 50 cycles: denaturation at 95° C. for 15 sec, hybridization and polymerization, then detection at 60° C. for 30 sec.

[2] = system: HMOX-1 gene; assay: Gene expression in primary astrocytes by qRT-PCR; format: cell-based, rat; conditions: 3 h, Example 2 at 330 nM and 1000 nM, PBT2 at 1000 nM
Description: as §1

[3] = system: PGK1 gene; assay: Gene expression in primary astrocytes by qRT-PCR; format: cell-based, rat; conditions: in the cells
Description: as §1

[4] = system: VEGF gene; assay: Gene expression in primary astrocytes by qRT-PCR; format: cell-based, rat; conditions: in the cells
Description: as §1

[5] = system: erythropoietin protein; assay: Erythropoietin protein expression in hippocampus and cortex of aged animals, chronic treatment, ELISA; format: in vivo, mouse; conditions: 18-month-old C57BL/6 female mice, 20 mg/l in drinking water for four months
Description: Twenty-four 18-month-old female C57BL/6 mice (Innovo Ltd., Budapest, Hungary) were treated according to the experimental setup described in Example 34. in two groups: Group 1—control group given normal drinking water, Group 2—treated with the R-enantiomer according to Example 2, administered in drinking water (20 mg/l) for four months. Brain preparation was carried out under conditions described in Example 34. Brain samples were washed with 1×PBS to remove blood, then tissues were homogenized in 1×PBS and for 3 days, they were held at −20° C. overnight and 25° C. at daytime every day. After the third round of thawing, samples were centrifuged (5 min, 5000 rpm) and the supernatant was collected for further protein expression studies. Determination of erythropoietin levels of samples was done with Quantikine® ELISA Mouse Erythropoetin (R&D Systems, cat. no.: MEPOOB) according to the manufacturer's protocol. At the end of the test, the developed colour was measured with a THERMO-LABSYSTEMS Multiskan FC Absorbance Plate Reader at 450 nm. Results obtained through ELISA and measured at 450 nm were compared to standard dilution series of purified mouse EPO. Values (pg/ml) obtained based on the dilution series were compared to actual protein content of tissues. Protein content of tissue homogenates was measured with Nanodrop-1000 adjusted for BSA protein, at 280 nm.

[6] = system: BALB/c ear skin graft on C57BL/6 recipient mice; assay: Mouse skin transplantation, graft rejection scoring; format: in vivo; conditions: 5 mg/kg once every day from transplantation; Example 2 orally, tacrolimus intraperitoneal; scoring at day 9 and day 10
Description: Mouse skin transplantation is a standard method to assay host T cell responses to MHC-disparate donor antigens, which protocol was followed in the present example (Garrod and Cahalan; 2008). Briefly, WT C57BL/6 recipient mice (8-12 weeks old) and WT BALB/c donor mice (8-12 weeks old) were anesthetized with a combination of 10 mg/kg Xylazine and 100 mg/kg Ketamine administered by i.p. injection and 0.05 mg/kg Buprenorphine was administered by subcutaneous injection for analgesia. Ear skin (1.0 cm2) from the WT BALB/c donor mouse was grafted onto the flank of the WT C57BL/6 recipient. The implanted skin (graft) was covered with a sterile bandage, which was removed on day 7 post-transplant.
Recipients received either no treatment (controls), or treated with compound according to Example 2 orally at 5 mg/kg dose, once every day until the end of the experiment from the day of transplantation. […]
Different scores were used to define the quality of the grafts: intact grafts (Score 0), early stages of rejection (Score 1-4, corresponding to first clear signals of graft rejection: 1; >25% rejection rate: 2; >50% rejection rate: 3; >75% rejection rate: 4) up to complete graft rejection (Score 5). […] Average scores with SEM were calculated for each group.

With `Cc1ccnc(N[C@H](c2ccc(C(F)(F)F)cc2)c2ccc3cccnc3c2O)n1` [Example 2, 7-[(R)-[(4-Methylpyrimidin-2-yl)amino][4-(trifluoromethyl)phenyl]methyl]quinolin-8-ol] the “activation of EPO gene expression” value [1] was “capable to increase the gene activity; also recorded: highest inductive effect; also recorded: dose-dependent and robust activation”, the “activation of HMOX-1 gene expression” value [2] was “capable to increase the gene activity; also recorded: caused the induction of HMOX-1 in astrocytes; also recorded: dose-dependent and robust activation” and the “increase of PGK-1 gene activity” value [3] was “capable to increase the gene activity”. The “increase of VEGF gene activity” value [4] was “capable to increase the gene activity”, the “EPO protein levels in hippocampal and cortical samples compared to untreated control mice” value [5] was “induced increased EPO protein levels in both hippocampal and cortical samples” and the “skin graft rejection score (0-5)” value [6] was “smaller score values both on day 9 and on day 10”.
